The assay addresses alanyl aminopeptidases (APN) (Homo sapiens, UniProt P15144). As to the kind of experiment: Inhibition of alanyl aminopeptidase enzymatic activity, fluorogenic substrate (Ala)2-rhodamine 110. The note with it: Table 3, unstarred values; read-out: IC50APN. It counts as biochemical. As to the method:
The inhibition characteristics measured are referred to as IC-50 values or ID50 values (the latter marked with “*”) for said enzyme. The enzymatic activity was determined by means of the fluorogenic substrate/product (Ala)2-rhodamine 110.

Residues, ends and D or L forms follow the SMILES beside them. *: point of attachment. Fmoc = O=C(OCC1c2ccccc2-c2ccccc21)*

alanyl aminopeptidases (APN), sequence (P15144 whole entry, species assumed): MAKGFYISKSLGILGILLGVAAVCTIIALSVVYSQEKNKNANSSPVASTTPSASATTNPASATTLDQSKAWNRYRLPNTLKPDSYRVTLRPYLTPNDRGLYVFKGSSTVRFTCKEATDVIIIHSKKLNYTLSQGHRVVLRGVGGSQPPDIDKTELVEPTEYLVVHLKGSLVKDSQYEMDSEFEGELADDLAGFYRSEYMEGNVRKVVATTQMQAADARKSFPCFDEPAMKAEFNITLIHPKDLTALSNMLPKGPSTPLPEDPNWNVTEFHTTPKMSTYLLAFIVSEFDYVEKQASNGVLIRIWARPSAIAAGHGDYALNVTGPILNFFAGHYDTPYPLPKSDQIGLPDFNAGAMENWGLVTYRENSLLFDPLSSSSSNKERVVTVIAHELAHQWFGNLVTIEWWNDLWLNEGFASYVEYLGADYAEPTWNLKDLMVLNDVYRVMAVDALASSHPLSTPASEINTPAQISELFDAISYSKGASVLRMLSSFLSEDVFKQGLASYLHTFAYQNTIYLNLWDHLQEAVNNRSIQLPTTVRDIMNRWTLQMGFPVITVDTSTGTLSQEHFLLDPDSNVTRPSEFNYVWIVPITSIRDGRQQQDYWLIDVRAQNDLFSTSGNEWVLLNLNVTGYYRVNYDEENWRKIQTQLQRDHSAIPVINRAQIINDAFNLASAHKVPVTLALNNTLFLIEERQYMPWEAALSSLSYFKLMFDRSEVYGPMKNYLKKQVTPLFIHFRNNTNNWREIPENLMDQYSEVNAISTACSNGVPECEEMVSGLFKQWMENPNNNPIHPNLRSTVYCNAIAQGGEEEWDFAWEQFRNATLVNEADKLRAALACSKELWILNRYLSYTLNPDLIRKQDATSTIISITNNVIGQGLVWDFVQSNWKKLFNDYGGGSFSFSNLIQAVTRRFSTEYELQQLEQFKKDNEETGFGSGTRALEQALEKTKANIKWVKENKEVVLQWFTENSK

Turning to `O=C(N/N=C/c1ccco1)c1ccccc1O` [A3.075], the IC50 turned out to be 16 µM.

In the case of `Cc1ccc(/C=N/NC(=O)COc2ccc(Cl)cc2)o1` [A3.076], the IC50 came out at 16 µM.

As for `Cc1ccc(NC(=O)/C(=C\c2ccco2)NC(=O)c2ccc(C)cc2)cc1` [A3.077], the IC50 was determined as 16.4 µM.

For `COc1ccc(C2NCCS2)cc1Br` (stereo not shown) [A3.078], the IC50 was 16.4 µM. Take `CC(C)c1cc(C(=O)N/N=C/c2ccco2)[nH]n1` [A3.080]: the IC50 is 16.6 µM. As to `COc1ccc(/C=C(/NC(=O)c2ccccc2)C(=O)N/N=C\C=C\c2ccc(C)o2)cc1OC` [A3.081], the IC50 stood at 16.7 µM.

`O=C(N/N=C/c1ccco1)c1ccc(O)cc1` [A3.082]: the IC50 is 16.8 µM. As for `COc1cc(/C=N/NC(=O)c2cc(-c3ccco3)n[nH]2)cc(OC)c1OC` [A3.083], the figure is 17 µM. Under `Cc1ccc(/C=N/NC(=O)c2ccccc2Cl)o1` [A3.084] stands 17.7 µM. As for `Cc1ccc(NC(=O)/C(=C\c2ccco2)NC(=O)c2ccccc2Cl)cc1` [A3.086], the figure is 17.9 µM; as for `C=CCOC(=O)c1cc(-c2ccc(/C=C3/C(=O)N(CCCO)C(=O)C(C#N)=C3C)o2)ccc1Cl` [A3.087], 18.1 µM. As to `Cc1cc(=O)[nH]c(N/N=C/c2ccco2)n1` [A3.088], the IC50 came to 18.2 µM. As for `CC(=O)c1cccc(-c2ccc(/C=C3/C(=O)N(CCCO)C(=O)C(C#N)=C3C)o2)c1` [A3.089], the figure is 18.2 µM; as for `Cc1ccc(/C=N/NC(=O)c2ccccc2OCc2ccccc2)o1` [A3.090], 18.4 µM. Under `NNC(=O)Cn1c2ccccc2n2cc(-c3ccccc3)cc12` [A3.091] stands 18.7 µM.

For the compound `O=C(Nc1ccccc1C(=O)N/N=C/c1ccco1)c1ccc(Cl)cc1Cl` [A3.092], the IC50 is 18.7 µM.

Regarding `Cc1ccc(/C=N/NC(=O)c2cccc(NC(=O)c3ccccc3C)c2)o1` [A3.093], the IC50 was found to be 18.9 µM. As to `O=C(N/C(=C\c1ccco1)C(=O)N1CCCC(CO)C1)c1ccccc1` (stereo not shown) [A3.094], the IC50 was 19 µM. As for `Cc1cc(I)ccc1CC(=O)CCC(=O)N/N=C/c1ccco1` [A3.095], the figure is 9.5 µM; as for `Cc1ccccc1S(=O)(=O)Nc1cccc(C(=O)N/N=C/c2ccco2)c1` [A3.097], 19.2 µM. As for `CN1C/C(=C/c2ccco2)C(=O)/C(=C/c2ccco2)C1` [A3.098], the IC50 amounted to 19.2 µM.

For the compound `CCCOc1ccccc1-c1cc(C(=O)N/N=C/c2ccco2)[nH]n1` [A3.100], the IC50 was determined as 19.5 µM.

Take `O=C(N/N=C/c1cc(Br)cc(Br)c1OC(=O)c1ccccc1)/C(=C/c1ccc2c(c1)OCO2)NC(=O)c1ccccc1` [A3.101]: the IC50 was determined as 19.8 µM. As for `COc1ccc(/C(C)=N/NC(=O)CNC(=O)/C=C\c2ccco2)cc1OC` [A3.102], the figure is 19.9 µM. Under `CC1CCCCN1S(=O)(=O)c1ccc(NC(=O)/C=C/c2ccco2)cc1` (stereo not shown) [A3.103] stands 19.9 µM; under `CN(C)c1ccc(C2C3C(=O)N(c4ccccc4)C(=O)C3ON2c2ccc(Cl)cc2)cc1` (stereo not shown) [A3.104], 20 µM. For the compound `CCCOc1[nH]c(/N=C/c2ccccc2)c(C#N)c1C#N` [A3.105], the IC50 is 20 µM. As for `Cc1cccc(C(=O)Nc2ccc(C(=O)N/N=C/c3ccc(C)o3)cc2)c1` [A3.106], the figure is 20.2 µM; as for `Cc1cc(C)n(-c2nnc(N)nn2)n1` [A3.107], 20.3 µM. As for `COc1cc(Br)ccc1OCC(=O)N/N=C/c1cc(Br)c(O)c(O)c1Br` [A3.109], the figure is 20.5 µM; as for `O=C(N/N=C/c1ccco1)c1cccc(NC(=O)c2ccccc2Cl)c1` [A3.110], 20.6 µM. As for `COc1ccc(-c2nc(C)sc2CC(=O)O)cc1` [A3.111], the figure is 20.8 µM; as for `CCCN1C(=O)C(C#N)=C(C)/C(=C\c2ccc(-c3cccc(Cl)c3C)o2)C1=O` [A3.112], 20.8 µM.

Consider `O=C(N/N=C/c1ccco1)c1cc(-c2ccco2)n[nH]1` [A3.113], for which the IC50 worked out at 20.9 µM. Regarding `COc1ccc(C[C@@H](N)C(=O)N[C@@H]2[C@H](O)[C@H](n3cnc4c(N(C)C)ncnc43)O[C@@H]2CO)cc1` [A3.114], the IC50 worked out at 20.9 µM. Take `O=C(N/C(=C\c1ccco1)C(=O)N1CCC(O)CC1)c1ccccc1` [A3.115]: the IC50 turned out to be 21.1 µM. Under `O=C(O)c1ccc(-n2c(/C=C/c3ccco3)nc3ccccc3c2=O)cc1` [A3.116] stands 21.2 µM; under `COC(=O)c1cc(NC(=O)Cc2cccs2)cc(C(=O)OC)c1` [A3.117], 21.2 µM; under `O=C1C(Cc2ccc(O)cc2)NC(=S)N1C1CCCCC1` (stereo not shown) [A3.118], 21.3 µM.

`CC1=C(C#N)C(O)=NC(=O)/C1=C/c1ccc(-c2ccc(Cl)c(C(=O)OC(C)C)c2)o1` [A3.120]: the IC50 amounted to 21.4 µM. As for `Cc1cccc(C)c1Nc1c(-c2ccccc2NC(=O)Nc2cccc(Cl)c2)nc2c(C(=O)NCC(C)C)cccn12` [A3.121], the figure is 21.6 µM; as for `O=C(Nc1ccc(N=Nc2ccccc2)cc1)c1ccc(S(=O)(=O)N2CCCC2)cc1` [A3.122], 21.6 µM; as for `CCOc1ccc(S(=O)(=O)N2CCCCC2)cc1-c1nc2c(C(C)(C)C)nn(C)c2c(=O)[nH]1` [A3.124], 21.8 µM. On to `COc1ccc(C(=O)N/N=C/c2cc(Br)c(C)o2)cc1` [A3.125], for which the IC50 worked out at 21.8 µM. As to `Cc1ccc(/C=N/NC(=O)COc2ccccc2C)o1` [A3.128], the IC50 came to 22.2 µM. As for `CCOC(=O)c1c(C)oc2c1c1c(c3ccccc32)OCN(C2CCS(=O)(=O)C2)C1` (stereo not shown) [A3.129], the figure is 22.3 µM; as for `O=C(N/N=C/c1ccco1)c1ccc(=O)[nH]n1` [A3.130], 22.4 µM; as for `O=C(N/N=C/c1ccco1)c1cccc(NC(=O)c2cccc(Br)c2)c1` [A3.131], 22.4 µM. Take `CC(C)CC(NC(=O)C(CCC(N)=O)NC(=O)CNC(=O)C(NC(=O)OCC1c2ccccc2-c2ccccc21)C(C)C)C(=O)O` (stereo not shown) [A3.132] (Fmoc-VGQL-OH; configuration not given here): the IC50 was found to be 22.5 µM. As for `Cn1nc(-c2cccs2)nc2c(=O)n(C)c(=O)nc1-2` [A3.133], the figure is 25 µM. As for `COc1ccc(C(=O)N/N=C/c2ccco2)cc1` [A3.134], the figure is 22.6 µM; as for `CCN(CC)c1ccc(/C=N/NC(=O)CNC(=O)/C=C/c2ccco2)cc1` [A3.135], 22.8 µM; as for `Cc1ccc(/C=N/NC(=O)c2ccc(NC(=O)c3ccccc3C)cc2)o1` [A3.136], 22.8 µM. Take `CN(C)CCCN1CCN(c2nc(N(C)CC(=O)O)c3ncn(Cc4ccc(C(F)(F)F)cc4)c3n2)CC1` [A3.137]: the IC50 is 23 µM.

Turning to `CC1=NNC(=O)C1CCC(=O)N/N=C\C=C\c1ccco1` (stereo not shown) [A3.138], the IC50 is 23 µM. As for `CCOC(=O)C1=C2SCC(=O)N2C(N)=C(C#N)C1` [A3.139], the figure is 23.1 µM; as for `Cc1cc(C)cc(OCC(=O)N/N=C/c2ccco2)c1` [A3.140], 23.4 µM; as for `COc1ccc(CCCC(=O)N/N=C/c2ccco2)cc1` [A3.141], 23.4 µM.

For the compound `Cc1ccc(/C=N/NC(=O)c2ccc(O)cc2)o1` [A3.142], the IC50 was determined as 23.4 µM. For the compound `O=C(N/N=C/c1cc(Br)c(O)c(Br)c1O)/C(=C\c1ccc2c(c1)OCO2)NC(=O)c1ccccc1` [A3.143], the IC50 is 23.6 µM.

Take `O=C(O)c1ccc2c(c1)C(=O)/C(=C\c1ccco1)C2=O` [A3.144]: the IC50 was found to be 23.7 µM.

(Values after patent US20070037752A1, “Novel alanyl-amino peptidase inhibitors for functionally influencing different cells and treating immunological, inflammatory, neuronal, and other diseases” (priority 2003, published 2007).)
